Test results reported in paper PMC8429249 (Journal of medicinal chemistry, 2021).
Read-outs that look alike come from different tables or passages of the source.

Key:
[1] = biological target: RLuc8-KRasG12D / GFP-CRAF RBD interaction in HEK293T cells (Homo sapiens, UniProt P01116, G12D); assay: Intracellular Ras-Raf BRET2 assay; type: cell-based; details: 0–15 μM, 20 h
H358 cells [2] = details: read-out: CellTiter-Glo EC50, 96 h, 10% FBS, mean ± SD
[3] = biological target: RLuc8-KRasG12V / GFP-CRAF RBD interaction in HEK293T cells (Homo sapiens, UniProt P01116, G12V); assay: Intracellular Ras-Raf BRET2 assay; type: cell-based; details: 0–15 μM, 20 h
H358 cells [4] = assay: MTT cell viability assay; type: cell-based, human; details: read-out: MTT EC50, 96 h, 10% FBS, mean ± SD

ΦOSQΦΠ-K-fArR-J-BBK-NH2 [Peptide B3-4]
effect on BRET signal (KRasG12D-CRAF RBD) [1]: did not decrease the BRET signal
EC50 (H358 cells [2]): 22 ± 4 µM
effect on BRET signal (KRasG12V-CRAF RBD) [3]: did not decrease the BRET signal
EC50 (H358 cells [4]): 29 ± 6 µM
